Broadly, the MIC is the lowest concentration found to suppress growth.

These results are taken from patent US10501493B2, “Broad spectrum antibiotics” (priority 2011, dated 2019).

≈ marks a conversion by molar mass, not a printed value.

Common to all, as to experiment: In vitro antimicrobial activity, MIC by broth micro-dilution
Common to all, as to type: cell-based
Background: In broth dilution the organism is exposed to a series of concentrations in liquid medium.

One assay has as its system C. glutamicum DSM 44475. The note with it: Corynebacterium glutamicum, DSM44475, read-out: MIC.
In assay [1] the test system is E. coli MIG1655 LepB(P84L). As to conditions: Escherichia coli. Put shortly:
(§1)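 CLSI broth micro-dilution MIC against two-fold serial compound dilutions. Inoculum came from colonies grown 24 h at 35° C. or 28° C., suspended in cation-adjusted Mueller Hinton broth at 1*10^7 CFU/ml, of which 5 μl was added per 100 μl well. LepB(P84L) is a proline-mutant SPase strain with heightened arylomycin susceptibility.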

The test system of assay [2] is P. aeruginosa PA01 LepB(P84L). The note with it: Pseudomonas aeruginosa. Put shortly: as §1
The subject of the next assay is R. equi DSM 6939. The note with it: Rhodococcus (subgen. Prescottella) equi, DSM6939, read-out: MIC. Put shortly:
as §1

In another assay the test system is S. agalactiae ATCC 13813. As to conditions: Streptococcus agalactiae, ATCC13813, read-out: MIC.
A further assay has as its system S. agalactiae COH-1. The note with it: Streptococcus agalactiae, COH1; S. agalactiae COH-1; read-out: MIC.
A further assay concerns S. aureus ATCC 29213. The note with it: Staphylococcus aureus, ATCC29213, read-out: MIC.
The subject of assay [3] is S. aureus NCTC-8325 SpsB(P295). As to conditions: Staphylococcus aureus, NCTC8325.
Assay [4] deals with S. epidermidis ATCC 12228. The note with it: Staphylococcus epidermidis, ATCC12228, read-out: MIC.
The subject of assay [5] is S. epidermidis RP62A SpsIB(S29P). As to conditions: Staphylococcus epidermidis.
Assay [6] has as its system S. epidermidis RP62A SpsIB(S31P). As to conditions: Staphylococcus epidermidis.
In the next assay the test system is S. epidermidis RP62A. As to conditions: Staphylococcus epidermidis; S. epidermidis RP62A; read-out: MIC.
For another assay, the system named is S. pneumoniae D39. As to conditions: Streptococcus pneumoniae; S. pneumoniae D39; read-out: MIC.
In the next assay the test system is S. pneumoniae R800. The note with it: Streptococcus pneumoniae, read-out: MIC. Summed up:
as §1

A further assay concerns S. pyogenes ATCC 19615. As to conditions: Streptococcus pyogenes, ATCC19615, read-out: MIC.
In a further assay the test system is S. pyogenes M15448. The note with it: Streptococcus pyogenes; S. pyogenes M15448; read-out: MIC. Put shortly: as §1

Turning to `CCCCCCCCCCCCCCCC(=O)N(C)[C@H](CO)C(=O)N[C@H](C)C(=O)NCC(=O)N(C)[C@@H]1C(=O)N[C@@H](C)C(=O)N[C@H](C(=O)NCC(N)=O)Cc2ccc(O)c(c2)-c2cc1ccc2O` [Compound 26], the MIC with C. glutamicum DSM 44475 was 32 µg/mL (≈ 34.1 µM); in [1] it was 8 µg/mL (≈ 8.54 µM); in assay [2] it was over 64 µg/mL; in the assay with R. equi DSM 6939, 64 µg/mL (≈ 68.3 µM); in the assay on S. agalactiae ATCC 13813 it was 16 µg/mL (≈ 17.1 µM); with S. agalactiae COH-1 it was over 64 µg/mL. In addition, the MIC with S. aureus ATCC 29213 was over 64 µg/mL; in assay [3] it was over 64 µg/mL; in assay [4], 32 µg/mL (≈ 34.1 µM); in assay [5], over 64 µg/mL; in [6], over 64 µg/mL; in the assay with S. epidermidis RP62A, 4 µg/mL (≈ 4.27 µM). Besides, the MIC was 8 µg/mL (≈ 8.54 µM) with S. pneumoniae D39, 16 µg/mL (≈ 17.1 µM) in the assay with S. pneumoniae R800, 8 µg/mL (≈ 8.54 µM) with S. pyogenes ATCC 19615 and over 64 µg/mL with S. pyogenes M15448.

Turning to `CCCCCCCCCCCCCCCC(=O)N(C)[C@H](CO)C(=O)N[C@H](C)C(=O)NCC(=O)N(C)[C@@H]1C(=O)N[C@@H](C)C(=O)N[C@H](C(=O)NCC(=O)N2CCCC2C(N)=O)Cc2ccc(O)c(c2)-c2cc1ccc2O` (stereo partly drawn) [Compound 27], the MIC is 32 µg/mL (≈ 30.9 µM) in the assay with C. glutamicum DSM 44475; 8 µg/mL (≈ 7.73 µM) in assay [1]; over 64 µg/mL in assay [2]; over 64 µg/mL in the assay on R. equi DSM 6939; 32 µg/mL (≈ 30.9 µM) in the assay on S. agalactiae ATCC 13813; 32 µg/mL (≈ 30.9 µM) in the assay with S. agalactiae COH-1. Moreover, the MIC with S. aureus ATCC 29213 was over 64 µg/mL; in assay [3] it was over 64 µg/mL; in assay [4], 32 µg/mL (≈ 30.9 µM); in assay [5], over 64 µg/mL; in assay [6], over 64 µg/mL; in the assay with S. epidermidis RP62A, 8 µg/mL (≈ 7.73 µM). The MIC stood at 16 µg/mL (≈ 15.5 µM) in the assay on S. pneumoniae D39, 32 µg/mL (≈ 30.9 µM) in the assay on S. pneumoniae R800, 32 µg/mL (≈ 30.9 µM) in the assay with S. pyogenes ATCC 19615 and 32 µg/mL (≈ 30.9 µM) in the assay on S. pyogenes M15448.

As to `CCCCCCCCCCCCCCCC(=O)N(C)[C@H](CO)C(=O)N[C@H](C)C(=O)NCC(=O)N(C)[C@@H]1C(=O)N[C@@H](C)C(=O)N[C@H](C(=O)N[C@H](C)C(=O)C(=O)N(C)C)Cc2ccc(O)c(c2)-c2cc1ccc2O` [Compound 29], the MIC in the assay with C. glutamicum DSM 44475 is 32 µg/mL (≈ 31.8 µM); in assay [1] it was 16 µg/mL (≈ 15.9 µM); in assay [2] it was over 64 µg/mL; in the assay with R. equi DSM 6939 it was over 64 µg/mL; in the assay on S. agalactiae ATCC 13813, 32 µg/mL (≈ 31.8 µM); in the assay on S. agalactiae COH-1 it was 64 µg/mL (≈ 63.5 µM). The MIC is over 64 µg/mL in the assay on S. aureus ATCC 29213; over 64 µg/mL in assay [3]; 32 µg/mL (≈ 31.8 µM) in assay [4]; over 64 µg/mL in [5]; over 64 µg/mL in assay [6]; 8 µg/mL (≈ 7.94 µM) in the assay on S. epidermidis RP62A. The MIC in the assay with S. pneumoniae D39 was found to be 16 µg/mL (≈ 15.9 µM); in the assay on S. pneumoniae R800, 32 µg/mL (≈ 31.8 µM); in the assay on S. pyogenes ATCC 19615, 16 µg/mL (≈ 15.9 µM); in the assay on S. pyogenes M15448, 64 µg/mL (≈ 63.5 µM).
